For one experiment, the target named is T1, His-Gαi3 K35A (Homo sapiens, UniProt P08754, K35A).
T1 construct: Full-length human Gαi3 (UNIPROT entry P08754) cloned in a pET24d(+) plasmid; made in house; host or cells: E. coli BL21 Rosetta
As to the kind of experiment: Fluorescence polarization peptide binding, Gαi3 K35A. As to conditions: peptide 0.025 μM, pH 7.4, room temperature, mean±s.e.m., n=3–7, Fig. 4d, read-out: Kd ± SEM. Here is the method: (§1) Human Gαi3 was expressed from the same plasmid as described for the NMR studies and purified as an uncleaved His-tagged protein. […] After sonication (four cycles, with pulses lasting 20 s and with 1 min interval between pulses to prevent heating), lysates were centrifuged at 12,000g for 20 min at 4 °C. […] The buffer was exchanged for 20 mM Tris-HCl, pH 7.4, 20 mM NaCl, 1 mM MgCl2, 1 mM DTT, 10 μM GDP and 5% (v/v) glycerol using a HiTrap Desalting column (GE Healthcare). Protein samples were stored at −80 °C.
(§2) Fluorescence polarization-based peptide-binding assays
(§3) Briefly, following chain elongation 5,6-carboxyfluorescein was activated with HATU and coupled to the resin-bound peptide at 65 °C for 1 h to yield the fluorescein-labelled peptides. […] Fluorescence polarization measurements were carried out in 384-well plates (Black OptiPlate-384F, Perkin Elmer). […] Fluorescence polarization (excitation 485±10 nm/emission 528±10 nm) was measured every 2 min for 30 min at room temperature in a Biotek H1 synergy plate reader to ensure that the signals were stable in time. Fluorescence polarization at different times was averaged, normalized and fitted to a one site binding hyperbola to determine the equilibrium dissociation constant (Kd). For mutants not reaching binding saturation, the maximal binding of Gαi3 WT measured in the same experimental set was considered 100% binding for normalization.

The target in the next experiment is T2, His-Gαi3 L249V (Homo sapiens, UniProt P08754, L249V).
T2 construct: Full-length human Gαi3 (UNIPROT entry P08754) cloned in a pET24d(+) plasmid; made in house; host or cells: E. coli BL21 Rosetta
Description: Fluorescence polarization peptide binding, Gαi3 L249V. As to conditions: peptide 0.025 μM, pH 7.4, room temperature, mean±s.e.m., n=3–7, Fig. 4d, read-out: Kd ± SEM. As to the method: as §1, §2, §3
A general note: Fluorescence polarisation rises when a labelled molecule tumbles more slowly, as on binding a larger partner.

A further experiment has as its target T3, His-Gαi3 W211A (Homo sapiens, UniProt P08754, W211A).
T3 construct: Full-length human Gαi3 (UNIPROT entry P08754) cloned in a pET24d(+) plasmid; made in house; host or cells: E. coli BL21 Rosetta
As to the kind of experiment: Fluorescence polarization peptide binding, Gαi3 W211A. The note with it: peptide 0.025 μM, pH 7.4, room temperature, mean±s.e.m., n=3–7, Fig. 4d, read-out: Kd ± SEM. Here is the method: as §1, §2, §3

The next experiment addresses T4, His-Gαi3 F215A (Homo sapiens, UniProt P08754, F215A).
T4 construct: Full-length human Gαi3 (UNIPROT entry P08754) cloned in a pET24d(+) plasmid; made in house; host or cells: E. coli BL21 Rosetta
As to the kind of experiment: Fluorescence polarization peptide binding, Gαi3 F215A. As to conditions: peptide 0.025 μM, pH 7.4, room temperature, mean±s.e.m., n=3–7, Fig. 4d, read-out: Kd ± SEM. As to the method: as §1, §2, §3

The target of another experiment is T5, ΔHis-Gαi3 (Homo sapiens, UniProt P08754).
T5 construct: Full-length human Gαi3 (UNIPROT entry P08754) cloned in a pET24d(+) plasmid; His-tag (N, cleaved yes); made in house; host or cells: E. coli BL21 Rosetta
Description: Fluorescence polarization peptide binding, ΔHis-Gαi3. As to conditions: room temperature, n=3, Supplementary Fig. 5. As to the method: Briefly, following chain elongation 5,6-carboxyfluorescein was activated with HATU and coupled to the resin-bound peptide at 65 °C for 1 h to yield the fluorescein-labelled peptides. The remaining steps were carried out as described above. Fluorescence polarization measurements were carried out in 384-well plates (Black OptiPlate-384F, Perkin Elmer). […] Fluorescence polarization (excitation 485±10 nm/emission 528±10 nm) was measured every 2 min for 30 min at room temperature in a Biotek H1 synergy plate reader to ensure that the signals were stable in time. Fluorescence polarization at different times was averaged, normalized and fitted to a one site binding hyperbola to determine the equilibrium dissociation constant (Kd). For mutants not reaching binding saturation, the maximal binding of Gαi3 WT measured in the same experimental set was considered 100% binding for normalization.

For the next experiment, the target named is T6, His-Gαi3 N256E (Homo sapiens, UniProt P08754, N256E).
T6 construct: Full-length human Gαi3 (UNIPROT entry P08754) cloned in a pET24d(+) plasmid; made in house; host or cells: E. coli BL21 Rosetta
Description: Fluorescence polarization peptide binding, Gαi3 N256E. As to conditions: peptide 0.025 μM, pH 7.4, room temperature, mean±s.e.m., n=3–7, Fig. 4d, read-out: Kd ± SEM. As to the method: as §1, §2, §3

A further experiment relates to His-Gαi3 W211A and F215A. As to the kind of experiment: Gβγ-binding pull-down assay. On the set-up: species or system human. As to conditions: bovine Gβ1γ1 100 nM, Gαi3 50 nM, 4 h, 4 °C, 30 μM GDP. As to the method:
Gβγ was purified from bovine retinas, which are primarily composed of Gβ1γ1 by purification of holotransducin from rod outer segment (ROS) membranes isolated from dark-adapted bovine followed by separation of the Gβ1γ1 complex from the α-subunit of transducin on a Hitrap Blue-sepharose column (GE healthcare), and further purification by anion exchange chromatography using a Hitrap-Q column.
For binding assays, Gβ1γ1 (100 nM final) was incubated in the absence or presence of human His-tagged Gαi3 WT or mutants (50 nM final) in 250 μl of binding buffer (50 mM Tris-HCl, pH 7.4, 100 mM NaCl, 0.4% (v:v) NP-40, 5 mM MgCl2, 10 mM imidazole, 0.1 mg ml^−1 BSA, 1 mM DTT and 30 μM GDP) for 4 h at 4 °C with rotation. A volume of 25 μl of BSA-blocked HisPur cobalt resin (Pierce) were added to each tube and the incubation continued for 90 min. Beads were washed four times with 1 ml of binding buffer and resin-bound proteins eluted by adding Laemmli sample buffer supplemented with 100 mM EDTA and boiling for 5 min. […]

For a further experiment, the system named is Gαi3-GDP. As to the kind of experiment: NMR perturbation of Gαi3-GDP backbone amide signals. It counts as binding, human. The note with it: fivefold molar excess of peptide, 30 °C, pH 7.0. Here is the method:
Full-length human Gαi3 (UNIPROT entry P08754) cloned in a pET24d(+) plasmid (a generous gift from Ichio Shimada, University of Tokyo) was used to purify the protein used in NMR experiments. For this, protein expression was induced in BL21 Rosetta (Life Technologies) cell cultures with 1 mM IPTG for 16 h at 23 °C in a modified M9 minimal medium containing 1 g l^−1 15N-NH4Cl, 2 g l^−1 2H-^13C-glucose and 1 g l^−1 of ^2H-^13C-^15N Celtone base powder in ^2H2O with 30 mg l^−1 kanamycin and 34 mg l^−1 chloramphenicol. The pelleted cells were lysed by sonication in 50 mM Tris, 200 mM NaCl, 100 mM KCl and 1 mM DTT at pH 8.0, and the supernatant was loaded on a Ni^2+-loaded His-Trap FF column. […]
All NMR data were measured on a Bruker Avance III 800 MHz (18.8 T) spectrometer equipped with a cryogenically cooled triple resonance z-gradient probe, processed with Topspin (Bruker) and analysed with Sparky. […] Gαi3 spectra were recorded at 30 °C on ^2H-^13C-^15N–Gαi3 samples with a threefold molar excess of GDP in 10 mM HEPES (pH 7.0) with 10 mM MgCl2, 5 mm DTT, 0.01% NaN3 and 5% ^2H2O. […] The assignment of Gαi3 resonances in the presence of a fivefold molar excess of GIV fragment 1,671–1,696 was achieved from the joint analysis of an HNCO and ^1H–^15N TROSY spectra recorded along a titration (at molar ratios 1:0, 1:0.2,1:0.5, 1:1, 1:2 and 1:5). […]

Experiment [1] relates to His-Gαi3 mutants in complex with Gβ1γ1. Description: Steady-state GTPase assay with rhodopsin. It counts as biochemical, human. As to conditions: rhodopsin 20 nM, Gαi3/Gβ1γ1 100/200 nM, 30 °C. As to the method:
Steady-state GTPase assays with rhodopsin
ROS membranes washed with urea were prepared as described earlier and used as the source of rhodopsin[67]. Human His-tagged Gαi3 WT and mutants (20–25 μM) were incubated overnight at 4 °C with twofold excess Gβ1γ1 in 20 mM Tris-HCl, pH 7.4, 20 mM NaCl, 1 mM MgCl2, 1 mM DTT, 10 μM GDP and 5% (v/v) glycerol. Bovine rhodopsin was freshly solubilized from urea-washed ROS membranes in assay buffer (20 mM HEPES, pH 7.5, 100 mM NaCl, 5 mM MgCl2, 1 mM DTT and 0.01% (w:v) dodecylmaltoside) for each experiment. Gαi3/Gβ1γ1 (100/200 nM final) and rhodopsin (20 nM final) were incubated in ice for 30 min under ambient light in assay buffer. Reactions were initiated at 30 °C by adding an equal volume of assay buffer containing 1 μM [γ-^32P]GTP (∼50 c.p.m. fmol^−1) and stopped in duplicates by mixing 25 μl of the reaction with 975 μl of ice-cold 5% (w/v) activated charcoal in 20 mM H3PO4, pH 3. Samples were then centrifuged for 10 min at 10,000g, and 500 μl of the resultant supernatant were scintillation-counted to quantify the amount of [^32P]Pi released. Background [^32P]Pi detected at 15 min in the absence of G protein was subtracted from each reaction (<5% of the counts detected in the presence of G proteins). Results were expressed as per cent of the activity of Gi3 WT without rhodopsin.

Data on five compounds can be found in publication PMC5454376, “Molecular mechanism of Gαi activation by non-GPCR proteins with a Gα-Binding and Activating motif” (Nature Communications, 2017).

Where a SMILES comes first, the peptide text is derived from it. The star is where a group is joined. 6FAM = O=C1OC2(c3ccc(O)cc3Oc3cc(O)ccc32)c2cc(C(=O)*)ccc21

In general, Kd refers to a measure of binding affinity in units of concentration.

T2 sequence (P08754 whole entry L249V): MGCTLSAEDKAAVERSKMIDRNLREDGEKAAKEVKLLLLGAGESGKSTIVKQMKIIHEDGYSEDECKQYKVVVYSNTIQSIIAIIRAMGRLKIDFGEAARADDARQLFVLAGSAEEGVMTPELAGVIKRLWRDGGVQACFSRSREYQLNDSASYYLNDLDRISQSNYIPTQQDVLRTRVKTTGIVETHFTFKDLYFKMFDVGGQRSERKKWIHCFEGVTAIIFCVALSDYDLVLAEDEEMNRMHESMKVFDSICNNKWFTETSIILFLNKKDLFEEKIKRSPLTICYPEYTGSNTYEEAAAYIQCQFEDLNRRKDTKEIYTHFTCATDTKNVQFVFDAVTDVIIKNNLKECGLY
T5 sequence (P08754 whole entry, stated change not applied): as the sequence (P08754 whole entry L249V) above, with V249L counted along it
T1 sequence (P08754 whole entry K35A): as the sequence (P08754 whole entry L249V) above, with K35A, V249L counted along it
T6 sequence (P08754 whole entry N256E): as the sequence (P08754 whole entry L249V) above, with V249L, N256E counted along it
T3 sequence (P08754 whole entry W211A): as the sequence (P08754 whole entry L249V) above, with W211A, V249L counted along it
T4 sequence (P08754 whole entry F215A): as the sequence (P08754 whole entry L249V) above, with F215A, V249L counted along it

`CC[C@H](C)[C@H](NC(=O)[C@H](CCC(N)=O)NC(=O)[C@@H](NC(=O)[C@H](CO)NC(=O)[C@@H](NC(=O)[C@H](CC(C)C)NC(=O)[C@H](CCCCN)NC(=O)[C@H](CC(N)=O)NC(=O)[C@H](CO)NC(=O)[C@H](CCC(=O)O)NC(=O)[C@H](CCC(=O)O)NC(=O)[C@H](CC(C)C)NC(=O)[C@H](Cc1ccccc1)NC(=O)[C@H](CCC(N)=O)NC(=O)[C@H](CCC(N)=O)NC(=O)[C@H](CC(C)C)NC(=O)[C@@H](NC(=O)[C@@H](NC(=O)[C@@H](NC(=O)[C@H](CCC(=O)O)NC(=O)[C@H](CO)NC(=O)CNC(=O)[C@@H]1CCCN1C(=O)[C@H](CO)NC(=O)CNC(=O)[C@@H](NC(=O)[C@H](CCCCN)NC(=O)c1ccc2c(c1)C1(OC2=O)c2ccc(O)cc2Oc2cc(O)ccc21)[C@@H](C)O)C(C)C)C(C)C)[C@@H](C)O)[C@@H](C)O)C(C)C)C(=O)N[C@@H](CCCCN)C(=O)N[C@@H](CO)C(=O)N[C@@H](CO)C(=O)N[C@@H](CO)C(N)=O` [GIV]: the dissociation constant Kd is above 10 µM at His-Gαi3 K35A; 1370 ± 199 nM at His-Gαi3 L249V; above 20 µM on His-Gαi3 W211A; above 10 µM at His-Gαi3 F215A; above 20 µM at His-Gαi3 N256E. On ΔHis-Gαi3, the “affinity for ΔHis-Gαi3 compared with His-Gαi3” value was “the same affinity”.
Turning to `CC[C@H](C)[C@H](NC(=O)[C@H](CC(C)C)NC(=O)[C@H](CCC(=O)O)NC(=O)[C@H](Cc1ccccc1)NC(=O)[C@H](Cc1ccccc1)NC(=O)[C@H](CCC(=O)O)NC(=O)[C@H](CCC(=O)O)NC(=O)[C@H](C)NC(=O)[C@H](CCC(=O)O)NC(=O)[C@H](CC(=O)O)NC(=O)c1ccc2c(c1)C1(OC2=O)c2ccc(O)cc2Oc2cc(O)ccc21)C(=O)N[C@@H](CO)C(=O)N[C@@H](CCCCN)C(=O)N[C@@H](C)C(=O)N[C@@H](CCC(N)=O)C(=O)N[C@@H](CO)C(=O)N[C@@H](CC(N)=O)C(=O)N[C@@H](CCCNC(=N)N)C(=O)N[C@@H](C)C(=O)N[C@@H](CC(=O)O)C(=O)N[C@@H](CC(=O)O)C(=O)N[C@@H](CCC(N)=O)C(=O)N[C@@H](CCCNC(=N)N)C(=O)NCC(=O)N[C@@H](CC(C)C)C(=O)N[C@@H](CC(C)C)C(=O)N[C@@H](CCCNC(=N)N)C(=O)N[C@@H](CCCCN)C(=O)N[C@@H](CCC(=O)O)C(=O)N[C@@H](CC(=O)O)C(=O)N[C@@H](CC(C)C)C(=O)N[C@H](C(=O)N[C@@H](CC(C)C)C(=O)N1CCC[C@H]1C(=O)N[C@@H](CCC(=O)O)C(=O)N[C@@H](Cc1ccccc1)C(=O)N[C@@H](CC(C)C)C(=O)N[C@@H](CCCNC(=N)N)C(N)=O)C(C)C` [RGS12, reference compound] (6FAM-DEAEEFFELISKAQSNRADDQRGLLRKEDLVLPEFLR-NH2), on His-Gαi3 L249V, the dissociation constant (Kd) was 84 ± 9 nM.
On to “Gβγ: retinal Gβγ (Gβ1γ1) purified from bovine retinas”, for which the “binding to Gαi3 W211A and F215A” value in the experiment on His-Gαi3 W211A and F215A is given as “abolished”.
In the case of “KTGSPGSEVVTLQQFLEESNKLTSVQ [GIVpept, peptide corresponding to GIV amino acids 1,671–1,696]”, in the experiment on Gαi3-GDP, the “overall decrease in signal intensities” value is recorded as around 15%.
“rhodopsin: bovine rhodopsin solubilized from urea-washed ROS membranes”: the “activation of Gαi3 mutants” value in experiment [1] (K35A, L249H, S252D and N256E) is recorded as “activated efficiently”. In addition, the “activation of Gαi3 ΔC9” value in experiment [1] (ΔC9) is on record as “completely abolished”.
